For orientation: IC50 means the concentration at which inhibition is half-maximal. Low readings indicate higher potency, high ones lower potency. For orientation: solubility means how much of the substance goes into solution per volume. A lower solubility goes with little dissolved substance.

For series [1], the system named is L6. The experiment in a line: Cytotoxicity against rat L6 cells after 72 hrs by SRB assay. It is filed as cell-based. The following applies: L6, 72 h. Background: The SRB assay estimates cell density from bound dye.
The subject of series [2] is Trypanosoma brucei rhodesiense. The experiment in a line: Antimicrobial activity against Trypanosoma brucei rhodesiense after 48 hrs by proliferation assay. It is filed as functional, organism-based.
Series [3] is described as follows: Aqueous solubility of the compound at pH 7.5 at 25 degC. It is filed as physicochemical.
Series [4] is described as follows: Aqueous solubility of the compound at pH 1.5 at 25 degC. Type of series: physicochemical.

Values after ≈ are worked out from the molar mass of the structure shown. Bounds are passed on as bounds.

Take `CSc1ccc(OCc2ncc(Cl)n2C)cc1`: the values for the IC50 in series [1] and in series [2] were > 400 µM and > 30 µM, respectively. Also, the solubility in series [3] was 8.7 µM (≈ 2.34 µg/mL); in series [4] it was 21 µM (≈ 5.64 µg/mL).
Turning to `CSc1ccc(OCc2ncc([N+](=O)[O-])n2C)cc1` [FEXINIDAZOLE], the IC50 was determined as 377 µM in series [1] and 0.7 µM in series [2]. For the same compound, the solubility in series [3] was 2.5 µM (≈ 0.698 µg/mL); in series [4], 5.5 µM (≈ 1.54 µg/mL).
Regarding `CSc1ccc(OCc2nc(Cl)c(Br)n2C)cc1`, the IC50 in series [1] is > 400 µM; in series [2], > 30 µM. For the same compound, the solubility in series [3] was 24.9 µM (≈ 8.66 µg/mL); in series [4] it was 35.8 µM (≈ 12.4 µg/mL).
Regarding `Cn1c([N+](=O)[O-])cnc1COc1ccccc1`, the IC50 was > 400 µM in series [1] and > 30 µM in series [2]. The solubility came to 2.1 µM (≈ 0.49 µg/mL) in series [3] and 5.7 µM (≈ 1.33 µg/mL) in series [4].
Turning to `Cc1cc(OCc2ncc([N+](=O)[O-])n2C)ccn1`, the figures for the IC50 in series [1] and in series [2] were 286 µM and 27 µM, respectively. The solubility in series [3] stood at 2.2 µM (≈ 0.546 µg/mL); in series [4] it was 4.3 µM (≈ 1.07 µg/mL).
`Cn1c([N+](=O)[O-])cnc1COc1ccncc1`: the IC50 in series [1] is > 400 µM; in series [2] it was > 30 µM. The solubility in series [3] came out at 2.7 µM (≈ 0.632 µg/mL); in series [4], 4.8 µM (≈ 1.12 µg/mL).
The corresponding values for `CSc1ccc(OCc2ncc(Br)n2C)cc1` are > 400 µM, > 30 µM, 8.5 µM (≈ 2.66 µg/mL) and 18.5 µM (≈ 5.79 µg/mL).
`CSc1ccc(OCc2nc(S(=O)(=O)O)c([N+](=O)[O-])n2C)cc1`: the IC50 was 0.2 µM in series [1] and 0.37 µM in series [2]. The solubility was 7.9 µM (≈ 2.84 µg/mL) in series [3] and 22.8 µM (≈ 8.19 µg/mL) in series [4].
As for `CSc1ccc(OCc2nc(Br)c(Br)n2C)cc1`, the IC50 in series [1] is > 400 µM; in series [2] it was > 30 µM. In addition, the solubility worked out at 24.5 µM (≈ 9.61 µg/mL) in series [3] and 41.2 µM (≈ 16.2 µg/mL) in series [4].
`Cn1c([N+](=O)[O-])cnc1COc1ccnc(N2CCNCC2)c1`: the figures for the IC50 in series [1] and in series [2] were 255 µM and 0.67 µM, respectively. Also, the solubility in series [3] worked out at 3.5 µM (≈ 1.11 µg/mL); in series [4], 5.6 µM (≈ 1.78 µg/mL).
Regarding `CSc1ccc(OCc2nc(Br)c(Cl)n2C)cc1`, the figures for the IC50 in series [1] and in series [2] were > 400 µM and > 30 µM, respectively. For the same compound, the solubility in series [3] is 21.7 µM (≈ 7.54 µg/mL); in series [4], 37.5 µM (≈ 13 µg/mL).
On to `CSc1ccc(OCc2nc(Cl)c([N+](=O)[O-])n2C)cc1`, for which the results for the IC50 in series [1] and in series [2] were 0.2 µM and 0.25 µM, respectively. Besides, the solubility in series [3] was determined as 5.9 µM (≈ 1.85 µg/mL); in series [4], 17.1 µM (≈ 5.37 µg/mL).
For the compound `CSc1ccc(OCc2nc(Cl)c(Cl)n2C)cc1`, the IC50 in series [1] is > 400 µM; in series [2], > 30 µM. Further, the solubility in series [3] amounted to 25.5 µM (≈ 7.73 µg/mL); in series [4], 45.5 µM (≈ 13.8 µg/mL).
In the case of `CSc1ccc(OCc2ncc(S(=O)(=O)O)n2C)cc1`, the figures for the IC50 in series [1] and in series [2] were > 400 µM and > 30 µM, respectively. Moreover, the solubility in series [3] turned out to be 8.2 µM (≈ 2.58 µg/mL); in series [4], 25.4 µM (≈ 7.99 µg/mL).
In the case of `CCc1cc(OCc2ncc([N+](=O)[O-])n2C)ccn1`, the IC50 in series [1] was found to be 243 µM; in series [2] it was 25 µM. In addition, the solubility was 3.1 µM (≈ 0.813 µg/mL) in series [3] and 5.9 µM (≈ 1.55 µg/mL) in series [4].
As for `CSc1ccc(OCc2nc([N+](=O)[O-])cn2C)cc1`, the results for the IC50 in series [1] and in series [2] were > 400 µM and > 30 µM, respectively. In addition, the solubility in series [3] came to 2.5 µM (≈ 0.698 µg/mL); in series [4], 5.1 µM (≈ 1.42 µg/mL).
Regarding `CSc1ccc(OCc2nc(Br)c([N+](=O)[O-])n2C)cc1`, the results for the half-inhibitory concentration (IC50) in series [1] and in series [2] were 0.8 µM and 0.55 µM, respectively. The solubility in series [3] is 5.8 µM (≈ 2.08 µg/mL); in series [4] it was 16.7 µM (≈ 5.98 µg/mL).

Source of the values: ChEMBL document CHEMBL1667768, “Compounds containing 2-substituted imidazole ring for treatment against human African trypanosomiasis” (Bioorg Med Chem Lett, 2011).
